In patent US20080242622A1, “Identification of genetic alterations that modulate drug sensitivity in cancer treatments” (Cold Spring Harbor Laboratory, priority 2007, published 2008):
Several values for one entry are separate records, joined by “and”; a condition that tells them apart may be missing. Identical values can stand only once.

Experiments:
[1] = test system: shTop1 2215 relapsed tumor #4 cells; experiment: Ex vivo viability of relapsed tumor cells (propidium iodide exclusion flow cytometry); assay type: cell-based, mice; conditions: treated ex-vivo for 24 hours
Text: Viability, measured by propidium iodide exclusion flow cytometry, is plotted relative to untreated cells.

[2] = congestive heart failure, dilated cardiomyopathy, death; cited from earlier work
[3] = test system: Eμ-Myc Arf^−/− lymphoma cells; experiment: Apoptotic response / in vitro viability of lymphoma cells to doxorubicin; assay type: cell-based, murine; conditions: Mus musculus; apoptotic response within 24 hours
Procedure: Competition and viability assays were performed according to the following protocols. 2 days post infection, lymphoma cells were split into replicate wells of 500,000 cells in 12 well plates. Following 24 hour treatments with a range of drug doses, the GFP positive percentage was quantified in the surviving cell population using a BD LSRII flow cytometer. The live cell population was gated via a forward scatter (FSC) versus side scatter (SSC) plotting. […] For in vitro cell viability assays, lymphoma cells were treated in triplicate at the indicated doses of doxorubicin/camptothecin. Viability was determined after 24 hours by an FSC versus SSC gate and plotted relative to untreated viability.

Row | IC50 [3] | Structure (SMILES) | drug resistance of Top2A down-regulated relapse compared to control primary tumor [1] | cumulative dose at which risks of cardiac side effects dramatically increase [2] [mg/m^2]
1 | – | N.N.[Cl][Pt][Cl] [cisplatin] | not cross-resistance to cisplatin | –
2 | ~0.007 µg/mL and ~16 nM | COc1cccc2c1C(=O)c1c(O)c3c(c(O)c1C2=O)C[C@@](O)(C(=O)CO)C[C@@H]3O[C@H]1C[C@H](N)[C@H](O)[C@H](C)O1 [doxorubicin] | doxorubicin resistance | ≥ 550
